# Laboratory results taken from ChEMBL document CHEMBL1131462, “Quantitative analysis of the structural requirements for blockade of the N-methyl-D-aspartate receptor at the phencyclidine binding site” (J Med Chem, 1998).
# Target: Glutamate [NMDA] receptor
# Experiment: The compound was tested for its ability to block PCP N-methyl-D-aspartate glutamate receptor at the PCP (phencyclidine) binding site in postmortem human frontal cortex.
row,Compound,Ki [µM]
1,CN(C)C12CC3CC(CC(C3)C1)C2,20.8
2,NC12CC3CC(CC(C3)C1)C2 [AMANTADINE],10.5
3,c1ccc(C2(N3CCCCC3)CCCCC2)cc1 [PHENCYCLIDINE],0.023
4,CCNC12CC3CC(C)(CC(C)(C3)C1)C2,1.72
5,CNC12CC3CC(CC(C3)C1)C2,21.7
6,NCCC12CC3CC(CC(C3)C1)C2,3.8
7,CN1CC[C@@]23CCCC[C@@H]2[C@@H]1Cc1ccc(O)cc13 [DEXTRORPHAN],0.22
8,CCC12CC3CC(N)(C1)CC(c1ccccc1)(C3)C2 (stereo not drawn),4.08
9,CC(C)C12CC3CC(CC(N)(C3)C1)C2,7.21
10,CC12CC3CC(C)(C1)CC(CCN)(C3)C2,0.79
11,NC12CC3CC(C1)CC(c1ccccc1)(C3)C2,15.2
12,NCCCCC12CC3CC(CC(C3)C1)C2,17.4
13,CCC12CC3CC(N)(C1)CC(CC)(C3)C2,0.19
14,CCC12CC3CC(CC(N)(C3)C1)C2,0.6
15,OC(CCN1CCCC1)(c1ccccc1)C1CCCCC1 (racemic) [PROCYCLIDINE],1.7
16,NCC12CC3CC(CC(C3)C1)C2,33.3
17,CC(C)(C)N1CCC(c2ccccc2)(c2ccccc2)CC1 [BUDIPINE],11.7
18,NCCCC12CC3CC(CC(C3)C1)C2,9.5
19,COc1ccc2c(c1)[C@]13CCCC[C@@H]1[C@H](C2)N(C)CC3 [DEXTROMETHORPHAN],1.68
20,CN(C)C12CC3CC(C)(CC(C)(C3)C1)C2,4.44
21,CNC1(c2ccccc2Cl)CCCCC1=O (racemic) [KETAMINE],0.42
22,Cc1ccccc1C(OCCN(C)C)c1ccccc1 (stereo not drawn) [ORPHENADRINE],6
23,CNC12CC3CC(C)(CC(C)(C3)C1)C2,1.61
